Measured values taken from PubChem BioAssay AID256 (DTP/NCI, 2004).
“And” between values parts separate entries of the source, which are not always exact repeats. Identical values can stand only once. Toxic doses and inconclusive results are not listed.

Tested on: CD2F1 mice, L1210 leukemia ip, survival T/C
Experiment: NCI In Vivo Anticancer Drug Screen. Data for tumor model L1210 Leukemia (intraperitoneal) in CD2F1 (CDF1) mice
Conditions: higher = longer survival
Method in brief: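 Compound-dosed mice with transplantable tumor versus matched vehicle controls; endpoint ratio T/C reported.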

`NC(C/[N+]([O-])=N/O)C(=O)O` (configuration not stated) was tested, and the T/C (endpoint: mean survival time, dose: 5.0 mg/kg/injection, schedule: Q01DX009 (ip), vehicle: alkali diluted with saline) was 100 % of control, the T/C (endpoint: mean survival time, dose: 7.5 mg/kg/injection, schedule: Q01DX005 (ip), vehicle: alkali diluted with saline) was 98 % of control and the T/C (endpoint: mean survival time, dose: 8.0 mg/kg/injection, schedule: Q03HX008 (ip), vehicle: saline) was 111 % of control. The T/C (endpoint: mean survival time, dose: 8.0 mg/kg/injection, schedule: Q03HX016 (ip), vehicle: saline) was 105 % of control, the T/C (endpoint: mean survival time, dose: 8.0 mg/kg/injection, schedule: Q03HX024 (ip), vehicle: saline) was 109 % of control and the T/C (endpoint: mean survival time, dose: 8.78 mg/kg/injection, schedule: Q01DX010 (ip), vehicle: alkali diluted with saline) was 121 % of control. The T/C (endpoint: mean survival time, dose: 9.38 mg/kg/injection, schedule: Q01DX009 (ip), vehicle: alkali diluted with saline) was 118 % of control, the T/C (endpoint: mean survival time, dose: 10.0 mg/kg/injection, schedule: Q01DX009 (ip), vehicle: alkali diluted with saline) was 101 % of control and the T/C (endpoint: mean survival time, dose: 13.2 mg/kg/injection, schedule: Q01DX010 (ip), vehicle: alkali diluted with saline) was 120 % of control. The T/C (endpoint: mean survival time, dose: 15.0 mg/kg/injection, schedule: Q01DX005 (ip), vehicle: alkali diluted with saline) was 113 % of control, the T/C (endpoint: mean survival time, dose: 16.0 mg/kg/injection, schedule: Q01DX009 (sc), vehicle: saline) was 97 % of control and the T/C (endpoint: mean survival time, dose: 16.0 mg/kg/injection, schedule: Q03HX008 (ip), vehicle: saline) was 112 % of control. For the same molecule, the T/C (endpoint: mean survival time, dose: 16.0 mg/kg/injection, schedule: Q03HX016 (ip), vehicle: saline) was 104 % of control, the T/C (endpoint: mean survival time, dose: 16.0 mg/kg/injection, schedule: Q03HX024 (ip), vehicle: saline) was 112 % of control and the T/C (endpoint: mean survival time, dose: 18.75 mg/kg/injection, schedule: Q01DX009 (ip), vehicle: alkali diluted with saline) was 119 % of control. The T/C (endpoint: mean survival time, dose: 18.8 mg/kg/injection, schedule: Q01DX009 (ip), vehicle: alkali diluted with saline) was 102 % of control, the T/C (endpoint: mean survival time, dose: 19.8 mg/kg/injection, schedule: Q01DX010 (ip), vehicle: alkali diluted with saline) was 121 % of control and the T/C (endpoint: mean survival time, dose: 20.0 mg/kg/injection, schedule: Q01DX009 (ip), vehicle: alkali diluted with saline) was 105 % of control. The T/C (endpoint: mean survival time, dose: 28.12 mg/kg/injection, schedule: Q04DX003 (ip), vehicle: alkali diluted with saline) was 103 % of control, the T/C (endpoint: mean survival time, dose: 30.0 mg/kg/injection, schedule: Q01DX005 (ip), vehicle: alkali diluted with saline) was 122 % of control and the T/C (endpoint: mean survival time, dose: 32.0 mg/kg/injection, schedule: Q01DX009 (ip), vehicle: saline) was 123 % of control. For the same molecule, the T/C (endpoint: mean survival time, dose: 32.0 mg/kg/injection, schedule: Q01DX009 (sc), vehicle: saline) was 103 % of control, the T/C (endpoint: mean survival time, dose: 32.0 mg/kg/injection, schedule: Q03HX008 (ip), vehicle: saline) was 108 % of control and the T/C (endpoint: mean survival time, dose: 32.0 mg/kg/injection, schedule: Q03HX016 (ip), vehicle: saline) was 113 % of control. The T/C (endpoint: mean survival time, dose: 37.5 mg/kg/injection, schedule: Q01DX009 (ip), vehicle: alkali diluted with saline) was 120 % of control and 124 % of control, the T/C (endpoint: mean survival time, dose: 40.0 mg/kg/injection, schedule: Q01DX009 (ip), vehicle: alkali diluted with saline) was 120 % of control and the T/C (endpoint: mean survival time, dose: 56.25 mg/kg/injection, schedule: Q04DX003 (ip), vehicle: alkali diluted with saline) was 116 % of control and 103 % of control. For the same molecule, the T/C (endpoint: mean survival time, dose: 64.0 mg/kg/injection, schedule: Q01DX001 (ip), vehicle: saline) was 111 % of control, the T/C (endpoint: mean survival time, dose: 64.0 mg/kg/injection, schedule: Q01DX009 (oral), vehicle: saline) was 96 % of control and the T/C (endpoint: mean survival time, dose: 64.0 mg/kg/injection, schedule: Q01DX009 (sc), vehicle: saline) was 111 % of control. The T/C (endpoint: mean survival time, dose: 64.0 mg/kg/injection, schedule: Q03HX008 (ip), vehicle: saline) was 116 % of control, the T/C (endpoint: mean survival time, dose: 64.0 mg/kg/injection, schedule: Q03HX016 (ip), vehicle: saline) was 116 % of control and the T/C (endpoint: mean survival time, dose: 64.0 mg/kg/injection, schedule: Q04DX003 (ip), vehicle: saline) was 116 % of control. For the same molecule, the T/C (endpoint: mean survival time, dose: 64.0 mg/kg/injection, schedule: Q04DX003 (oral), vehicle: saline) was 98 % of control, the T/C (endpoint: mean survival time, dose: 64.0 mg/kg/injection, schedule: Q04DX003 (sc), vehicle: saline) was 96 % of control and the T/C (endpoint: mean survival time, dose: 64.0 mg/kg/injection, schedule: Q08DX002 (ip), vehicle: saline) was 109 % of control. The T/C (endpoint: mean survival time, dose: 112.5 mg/kg/injection, schedule: Q04DX003 (ip), vehicle: alkali diluted with saline) was 123 % of control, the T/C (endpoint: mean survival time, dose: 128.0 mg/kg/injection, schedule: Q01DX001 (ip), vehicle: saline) was 113 % of control and the T/C (endpoint: mean survival time, dose: 128.0 mg/kg/injection, schedule: Q01DX009 (ip), vehicle: saline) was 95 % of control. For the same molecule, the T/C (endpoint: mean survival time, dose: 128.0 mg/kg/injection, schedule: Q01DX009 (oral), vehicle: saline) was 91 % of control, the T/C (endpoint: mean survival time, dose: 128.0 mg/kg/injection, schedule: Q01DX009 (sc), vehicle: saline) was 104 % of control and the T/C (endpoint: mean survival time, dose: 128.0 mg/kg/injection, schedule: Q04DX003 (oral), vehicle: saline) was 102 % of control. For the same molecule, the T/C (endpoint: mean survival time, dose: 128.0 mg/kg/injection, schedule: Q04DX003 (sc), vehicle: saline) was 105 % of control, the T/C (endpoint: mean survival time, dose: 128.0 mg/kg/injection, schedule: Q08DX002 (ip), vehicle: saline) was 112 % of control and the T/C (endpoint: mean survival time, dose: 150.0 mg/kg/injection, schedule: Q01DX009 (ip), vehicle: alkali diluted with saline) was 102 % of control. The T/C (endpoint: mean survival time, dose: 256.0 mg/kg/injection, schedule: Q01DX001 (ip), vehicle: saline) was 123 % of control, the T/C (endpoint: mean survival time, dose: 256.0 mg/kg/injection, schedule: Q04DX003 (ip), vehicle: saline) was 119 % of control and the T/C (endpoint: mean survival time, dose: 256.0 mg/kg/injection, schedule: Q04DX003 (oral), vehicle: saline) was 116 % of control. The T/C (endpoint: mean survival time, dose: 256.0 mg/kg/injection, schedule: Q04DX003 (sc), vehicle: saline) was 122 % of control, the T/C (endpoint: mean survival time, dose: 512.0 mg/kg/injection, schedule: Q04DX003 (ip), vehicle: saline) was 170 % of control and the T/C (endpoint: mean survival time, dose: 512.0 mg/kg/injection, schedule: Q04DX003 (sc), vehicle: saline) was 155 % of control. For the same molecule, the T/C (endpoint: mean survival time, dose: 1024.0 mg/kg/injection, schedule: Q04DX003 (ip), vehicle: saline) was 90 % of control, the T/C (endpoint: mean survival time, dose: 1024.0 mg/kg/injection, schedule: Q04DX003 (oral), vehicle: saline) was 119 % of control and the T/C (endpoint: mean survival time, dose: 1024.0 mg/kg/injection, schedule: Q04DX003 (sc), vehicle: saline) was 89 % of control. The T/C (endpoint: mean survival time, dose: 1024.0 mg/kg/injection, schedule: Q08DX002 (ip), vehicle: saline) was 118 % of control, the T/C (endpoint: median survival time, dose: 0.78 mg/kg/injection, schedule: Q01DX009 (ip), vehicle: water) was 100 % of control and the T/C (endpoint: median survival time, dose: 0.78 mg/kg/injection, schedule: Q04DX003 (ip), vehicle: water) was 100 % of control. For the same molecule, the T/C (endpoint: median survival time, dose: 1.57 mg/kg/injection, schedule: Q01DX009 (ip), vehicle: water) was 95 % of control and 100 % of control, the T/C (endpoint: median survival time, dose: 1.57 mg/kg/injection, schedule: Q04DX003 (ip), vehicle: water) was 95 % of control and the T/C (endpoint: median survival time, dose: 3.13 mg/kg/injection, schedule: Q01DX009 (ip), vehicle: water) was 100 % of control. The T/C (endpoint: median survival time, dose: 3.13 mg/kg/injection, schedule: Q04DX003 (ip), vehicle: water) was 95 % of control and 100 % of control, the T/C (endpoint: median survival time, dose: 6.25 mg/kg/injection, schedule: Q01DX009 (ip), vehicle: water) was 110 % of control and the T/C (endpoint: median survival time, dose: 6.25 mg/kg/injection, schedule: Q04DX003 (ip), vehicle: water) was 90 % of control and 95 % of control. For the same molecule, the T/C (endpoint: median survival time, dose: 12.5 mg/kg/injection, schedule: Q01DX009 (ip), vehicle: water) was 105 % of control, the T/C (endpoint: median survival time, dose: 12.5 mg/kg/injection, schedule: Q04DX003 (ip), vehicle: water) was 90 % of control and 100 % of control and the T/C (endpoint: median survival time, dose: 13.0 mg/kg/injection, schedule: Q01DX009 (ip), vehicle: alkali diluted with saline) was 120 % of control. The T/C (endpoint: median survival time, dose: 16.2 mg/kg/injection, schedule: Q01DX009 (ip), vehicle: alkali diluted with saline) was 119 % of control, the T/C (endpoint: median survival time, dose: 21.6 mg/kg/injection, schedule: Q01DX009 (ip), vehicle: alkali diluted with saline) was 122 % of control and the T/C (endpoint: median survival time, dose: 25.0 mg/kg/injection, schedule: Q01DX009 (ip), vehicle: water) was 100 % of control. For the same molecule, the T/C (endpoint: median survival time, dose: 25.0 mg/kg/injection, schedule: Q04DX003 (ip), vehicle: water) was 90 % of control and 105 % of control, the T/C (endpoint: median survival time, dose: 27.0 mg/kg/injection, schedule: Q01DX009 (ip), vehicle: alkali diluted with saline) was 124 % of control and the T/C (endpoint: median survival time, dose: 31.3 mg/kg/injection, schedule: Q01DX009 (ip), vehicle: water) was 122 % of control. The T/C (endpoint: median survival time, dose: 31.3 mg/kg/injection, schedule: Q04DX003 (ip), vehicle: water) was 116 % of control, the T/C (endpoint: median survival time, dose: 35.0 mg/kg/injection, schedule: Q04DX003 (ip), vehicle: alkali diluted with saline) was 120 % of control and the T/C (endpoint: median survival time, dose: 36.0 mg/kg/injection, schedule: Q01DX009 (ip), vehicle: alkali diluted with saline) was 120 % of control. The T/C (endpoint: median survival time, dose: 58.3 mg/kg/injection, schedule: Q04DX003 (ip), vehicle: alkali diluted with saline) was 120 % of control, the T/C (endpoint: median survival time, dose: 62.5 mg/kg/injection, schedule: Q01DX009 (ip), vehicle: water) was 122 % of control and the T/C (endpoint: median survival time, dose: 62.5 mg/kg/injection, schedule: Q04DX003 (ip), vehicle: water) was 122 % of control. For the same molecule, the T/C (endpoint: median survival time, dose: 90.0 mg/kg/injection, schedule: Q01DX009 (ip), vehicle: alkali diluted with saline) was 158 % of control, the T/C (endpoint: median survival time, dose: 125.0 mg/kg/injection, schedule: Q01DX009 (ip), vehicle: alkali diluted with saline) was 114 % of control and the T/C (endpoint: median survival time, dose: 125.0 mg/kg/injection, schedule: Q01DX009 (ip), vehicle: water) was 88 % of control. For the same molecule, the T/C (endpoint: median survival time, dose: 125.0 mg/kg/injection, schedule: Q04DX003 (ip), vehicle: water) was 122 % of control, the T/C (endpoint: median survival time, dose: 162.0 mg/kg/injection, schedule: Q04DX003 (ip), vehicle: alkali diluted with saline) was 151 % of control and the T/C (endpoint: median survival time, dose: 250.0 mg/kg/injection, schedule: Q04DX003 (ip), vehicle: water) was 155 % of control and 177 % of control. The T/C (endpoint: median survival time, dose: 270.0 mg/kg/injection, schedule: Q04DX003 (ip), vehicle: alkali diluted with saline) was 172 % of control, the T/C (endpoint: median survival time, dose: 450.0 mg/kg/injection, schedule: Q04DX003 (ip), vehicle: alkali diluted with saline) was 189 % of control and the T/C (endpoint: median survival time, dose: 500.0 mg/kg/injection, schedule: Q04DX003 (ip), vehicle: water) was 194 % of control.
